Common to all, as to format: functional, cell-based
The test system of experiment [1] is Fibroblast. Briefly: Induction of heat shock response in mouse fibroblasts expressing GFP at 2.5 uM after overnight incubation by fluorescence assay.
In experiment [2] the test system is SF-268. Briefly: Cytotoxicity against human SF268 cells after 72 hrs by Alamar blue assay. The note with it: SF-268, 72 h. Background: Resazurin is reduced to fluorescent resorufin, in cell work by metabolically active cells.
Experiment [3] can be described thus: Cytotoxicity against human PC3M cells after 72 hrs by Alamar blue assay. The note with it: PC-3M.
Experiment [4] concerns NCI-H460. Kind of experiment: Cytotoxicity against human NCI-H460 cells after 72 hrs by Alamar blue assay. The note with it: NCI-H460, 72 h.
Experiment [5] relates to MCF7. Briefly: Cytotoxicity against human MCF7 cells after 72 hrs by Alamar blue assay. The note with it: MCF7, 72 h.
The subject of experiment [6] is MDA-MB-231. Briefly: Cytotoxicity against human MDA-MB-231 cells after 72 hrs by Alamar blue assay. The settings on record: MDA-MB-231, 72 h.
Experiment [7] deals with PC-3M. Briefly: Cytotoxicity against human PC3M cells at 5 uM after 72 hrs by Alamar blue assay.
Experiment [8] deals with MDA-MB-231. Briefly: Cytotoxicity against human MDA-MB-231 cells at 5 uM after 72 hrs by Alamar blue assay.
Experiment [9] relates to SF-268. Briefly: Cytotoxicity against human SF268 cells at 5 uM after 72 hrs by Alamar blue assay.
The subject of experiment [10] is MCF7. Kind of experiment: Cytotoxicity against human MCF7 cells at 5 uM after 72 hrs by Alamar blue assay.
Experiment [11] concerns NCI-H460. Kind of experiment: Cytotoxicity against human NCI-H460 cells at 5 uM after 72 hrs by Alamar blue assay.

Calls of active or inactive are those of the source. The calls are words filed in the database; no cut-off is given here.

In general, IC50 refers to the concentration at which inhibition is half-maximal. High values mean lower potency, low ones higher potency.

In the case of `C=C1C(=O)[C@]23C[C@H]1CC[C@H]2[C@]1(C)[C@@H](O)CC[C@@](C)(C(=O)OC)[C@H]1C[C@@H]3O` [METHYLGEOPYXIN A], the outcome in [1] was inactive. Also, the IC50 in [2] was found to be 720 nM; in experiment [3] it was 2270 nM; in experiment [4], 1080 nM; in experiment [5] it was 790 nM; in [6], 730 nM.
As for `C=C1C(=O)[C@]23C[C@H]1CC[C@H]2[C@]1(C)[C@@H](OC(C)=O)CC[C@@](C)(C(=O)OC)[C@H]1C[C@@H]3OC(C)=O`, in [1], the outcome was inactive. Moreover, the IC50 in experiment [2] came out at 1180 nM; in [3], 2310 nM; in experiment [4], 1260 nM; in [5], 1180 nM; in [6], 1930 nM.
Take `C=C1C(=O)[C@]23C[C@H]1CC[C@H]2[C@]1(C)[C@@H](O)[C@@H](O)C[C@@](C)(C(=O)O)[C@H]1C[C@@H]3O`: the result in experiment [7], in experiment [8], in [9], in experiment [10] and in experiment [11] was inactive.
Turning to `C=C1C(=O)[C@]23C[C@H]1CC[C@H]2[C@]1(C)C(=O)CC[C@@](C)(C(=O)O)[C@H]1C[C@@H]3O`, the result in [7], in experiment [8], in [9], in experiment [10] and in experiment [11] was inactive.
On to `C=C1C(=O)[C@]23C[C@H]1CC[C@H]2[C@]1(C)[C@@H](OC(C)=O)CC[C@@](C)(C(=O)O)[C@H]1C[C@@H]3O`, for which the outcome in experiment [1] was inactive. The IC50 in [2] is 2370 nM; in experiment [3], 3880 nM; in experiment [4] it was 3520 nM; in experiment [5], 3480 nM; in experiment [6] it was 4110 nM.
Take `C=C1C(=O)[C@]23C[C@H]1CC[C@H]2[C@]1(C)CCC[C@@](C)(C(=O)OC)[C@H]1C[C@@H]3O` [METHYLGEOPYXIN B]: in [1], the outcome was inactive. Besides, the IC50 in experiment [2] worked out at 690 nM; in experiment [3] it was 1480 nM; in experiment [4], 920 nM; in [5] it was 630 nM; in experiment [6] it was 910 nM.
As for `C=C1C(=O)[C@]23C[C@H]1CC[C@H]2[C@]1(C)CCC[C@@](C)(C(=O)O)[C@H]1C[C@@H]3O` [GEOPYXIN B], the outcome in [1] was Active. Further, the IC50 in [2] stood at 2350 nM; in experiment [3] it was 5410 nM; in [4] it was 2250 nM; in experiment [5], 4320 nM; in experiment [6], 3310 nM.
For the compound `C=C1C(=O)[C@]23C[C@H]1CC[C@H]2[C@]1(C)[C@@H](O)CC[C@@](C)(C(=O)O)[C@H]1C[C@@H]3O`, the result in experiment [7], in experiment [8], in experiment [9], in [10] and in experiment [11] was inactive.
Regarding `COC(=O)[C@]1(C)CC[C@H](O)[C@@]2(C)[C@@H]3CC[C@@H]4C[C@]3(C(=O)[C@@H]4CO)[C@@H](O)C[C@@H]21`, the result in experiment [7], in experiment [8], in [9], in experiment [10] and in experiment [11] was inactive.
Regarding `C=C1C(=O)[C@]23C[C@H]1CC[C@H]2[C@]1(C)[C@@H](O)[C@@H](O)C[C@@](C)(C(=O)OC)[C@H]1C[C@@H]3O` [METHYLGEOPYXIN E], in [1], the result was inactive. Further, the IC50 came to 1020 nM in [2]; 3990 nM in [3]; 2270 nM in experiment [4]; 2080 nM in experiment [5]; 3810 nM in experiment [6].
Consider `C=C1C(=O)[C@]23C[C@H]1CC[C@H]2[C@]1(C)[C@@H](OC(C)=O)CC[C@@](C)(C(=O)OC)[C@H]1C[C@@H]3O`, for which the outcome in [1] was Active. Also, the IC50 in [2] stood at 660 nM; in experiment [3], 1540 nM; in experiment [4] it was 820 nM; in experiment [5], 530 nM; in [6], 1150 nM.
Take `C[C@]12[C@@H]3CC[C@@H]4C[C@]3(C(=O)[C@@H]4CO)[C@@H](O)C[C@@H]1[C@](C)(C(=O)O)CC[C@@H]2O`: the outcome in experiment [7], in [8], in experiment [9], in experiment [10] and in experiment [11] was inactive.
Turning to `C=C1C(=O)[C@]23C[C@H]1CC[C@H]2[C@]1(C)[C@@H](OC(C)=O)CC[C@@](C)(C(=O)O)[C@H]1C[C@@H]3OC(C)=O`, the outcome in experiment [7], in experiment [8], in experiment [9], in [10] and in [11] was inactive.
Take `COc1cccc2c1C(=O)c1c(O)c3c(c(O)c1C2=O)C[C@@](O)(C(=O)CO)C[C@@H]3O[C@H]1C[C@H](N)[C@H](O)[C@H](C)O1` [DOXORUBICIN]: the IC50 in experiment [2] stood at 620 nM; in experiment [3], 240 nM; in experiment [4], 420 nM; in experiment [5], 420 nM; in experiment [6], 580 nM.
As to `C=C1C(=O)[C@]23C[C@H]1CC[C@H]2[C@]1(C)C(=O)CC[C@@](C)(C(=O)OC)[C@H]1C[C@@H]3O` [METHYLGEOPYXIN C], in experiment [1], the result was inactive. Moreover, the 50% inhibitory concentration (IC50) in experiment [2] was 1560 nM; in experiment [3] it was 3630 nM; in experiment [4], 2280 nM; in experiment [5], 1670 nM; in experiment [6] it was 3380 nM.
For the compound `C=C1C(=O)[C@]23C[C@H]1C[C@H](O)[C@H]2[C@]1(C)CCC[C@@](C)(C(=O)O)[C@H]1C[C@@H]3O`, the result in experiment [7], in [8], in experiment [9], in experiment [10] and in experiment [11] was inactive.
